Where two headings read alike, the source gives them in different places. Each block holds one molecule with its values, some of them ahead of it.
Experiments:
[1] = test system: HIV-1 (HTLVIIIB); test: microbe, parasite or virus in culture; format: cell-based; details: H9 cells; for IC50: Human immunodeficiency virus 1
Procedure: (§3) The effects for test compounds were assessed by means of both IFA and p24 release. In general, the following protocol was followed: H9 cells were infected with HIV-1 at 1000 50% infective doses of viruses/10^6 cells. Virus was allowed to adsorb for 1 h, after which unadsorbed virus was removed by centrifugation. The cells were resuspended and washed twice with PBS (without Ca^+2 or Mg^+2 salts) and centrifuged to collect the cell pellet (150×g×10 min). Cells were suspended in fresh medium and added at a final cell density of 500,000 cells/ml in a 96-well plate with media containing 0.1% DMSO and various concentrations of test compounds. The cells were re-fed freshly prepared media containing 0.1% DMSO±test compounds on day four (for preinduction experiments, cells were exposed to inducers on days -2, 0, and +4 days relative to infection). After seven days, cells were examined for cytoxicity by trypan blue exclusion, the degree of infection with HIV-1 by IFA, and the supernatants were assayed for p24 levels according to the manufacturer's directions. The IFA procedure can be summarized as follows: The cells were washed twice in PBS and were placed in 5 mm 12-well slides. After allowing the slides to dry and fixing the cells with acetone for 5 min, 10 μl of HIV-1 positive serum in 40 μl PBS was added to each well and allowed to incubate at 37° C. for 30 min. After incubation, the slides were washed twice with PBS and incubated at 37° C. for 30 min with 2.5 μl goat anti-human IgG-fluorescein isothiocyanate conjugate in 50 μl PBS containing 0.01% Evans Blue per well. The slides were then washed twice with PBS, dried, and mounted with 50% glycerol in PBS, and scored for the percentage of fluorescent cells by fluorescent microscopy.

[2] = test system: quinone reductase (QR) in H9 cells; test: Elevation of quinone reductase (QR) in H9 cells; format: cell-based, human; details: for fold induction at 30 µM / fold induction at 60 µM / fold induction at 120 µM: Homo sapiens, read-out: Quinone reductase, treated to control value
Procedure: (§1) Five ml of medium was added to T-25 flasks and DMSO containing tests compounds were added to a final concentration of 0.1%. Control medium contained 0.1% DMSO. After the drugs were added, 5×10^6 cells in 5 ml of medium was added to each T-25 flask. The cells were grown at 37° C. in a humidified incubator supplemented with 5% CO2 until harvested (N=3 flasks/group). At the indicated times, cells were isolated by centrifugation (500×g×10 min) and were washed three times by adding 10 ml of ice-cold DPBS, mixing, and centrifuging in a refrigerated centrifuge (500×g×10 min) to isolate the cell pellets. The cells were then lysed by the addition of 400 μl of ice-cold DPBS containing 0.5% Triton X-100 and vortexing. Supernatants were then isolated by centrifuging the lysates (5000×g×20 min). Samples were kept on ice or refrigerated until the reagents for QR or GSH spectrophotometric assays were added to the aliquoted microtiter plates. QR levels were determined by aliquoting 10 μl/well of supernatant in a 96-well plate and measuring the activity by the assay described by Prochaska and Santamaria (20) except that the final NADP^+ concentration was 200 μM (21). Samples were assayed in quadruplicate, and dicoumarol inhibitable-rates (which generally represented less than 5% of the total rate) were also measured. Spectrophotometric blanks contained 10 μl of DPBS with 0.5% Triton X-100. For the GSH assay, 300 μl of sample was placed in a centricon-10microconcentrator and centrifuged (5000×g×45 min) until enough ultrafiltrate could be collected. 50 μl/well of sample in quadruplicate was placed in a 96 well "half-area" plate after which 20 μl of 1 mM Ellman's reagent dissolved in DPBS was added. The yellow color (22) developed within 5 min and was scanned with a uvmax microtiter scanner (Palo Alto, Calif.) at 405 nm. Spectrophotometric blanks contained 50 μl DPBS with 0.5% Triton X-100 and 20 μl of 1 mM Ellman's reagent in DPBS. The optical densities of the specimens were calibrated to a GSH standard curve. Protein contents were determined in 3 ml cuvettes by the Bradford method (23). The protein content in the ultrafiltrates employed for GSH determinations were negligible (<0.01 mg/ml).
We confirmed that the induction of QR in microtiter wells mirrored our results in T-25 flasks by using the method of Prochaska and Santamaria (20). Medium (100 μl) containing 0.1% final concentration DMSO was added to all wells except columns designated to contain the highest concentration of drug or spectrophotometric blanks in duplicate sets of U-bottomed microtiter plates. 200 μl of media containing drug (final DMSO concentration=0.1%) was added to the empty column of wells and then diluted in 2-fold serial dilutions across. After the serial dilutions were performed, 100 μl of media containing 1×10^6 cells/ml was added to each well, and the plates were placed in a 37° C. incubator for 48 h. One set of plates was assayed as described (21) for QR activity, the other was assayed for cell number by the method for Alley et al. (24).

[3] = test system: H9 cells; test: Cytotoxicity in H9 cells by trypan blue exclusion; format: cell-based, human; details: up to 30 μM (tert-butylhydroquinone), 120 μM (1,2-dithiole-3-thione), 60 μM (dimethyl fumarate)
Procedure: as §3

[4] = test system: glutathione levels (GSH) in H9 cells; test: Elevation of glutathione (GSH) levels in H9 cells; format: cell-based, human; details: for fold induction at 30 µM / fold induction at 60 µM / fold induction at 120 µM: Homo sapiens, read-out: Glutathione levels, treated to control value
Procedure: as §1

[5] = molecular target: T1, HIV-1 reverse transcriptase (RT) (Human immunodeficiency virus type 1 group M subtype B, UniProt P04585); test: Inhibition of recombinant HIV-1 reverse transcriptase (TTP incorporation); format: biochemical
T1 construct: Recombinant HIV-1 reverse transcriptase (RT) was obtained from Worthington (Freehold, N.J.); purchased Worthington (Freehold, N.J.)
Procedure: (§2) Reverse transcriptase assays were performed as described by Flexner, et al. (25) using recombinant HIV-1 RT as the source of enzyme. Dilutions and assay were carried out in 96-well "half-area" plates. The enzyme with various concentrations of test compounds were dissolved in DPBS containing 1% w/v BSA and diluted in 50 μl volumes; 10 μl aliquots in triplicate were transferred to another plate for the enzyme assay. The reactions were initiated by the addition of 25 μl/well of buffer containing 50 mM Tris.cndot.Cl (pH 8.0), 75 mM KCl, 1 mM dithiothreitol, 2 mM MgCl2, 5 μg/ml poly(A), 2.5 μg/ml oligo (dT), 10 μCi/ml ^32 p TTP with or without unlabeled TTP. […] TTP incorporation was measured by spotting 20 μl of the reaction cocktail onto DE81 paper, washing the paper with 4×5 min washes of 300 mM NaCl and 30 mM sodium citrate (pH 7.0), drying the paper, and counting the paper by liquid scintillation counting. The assays performed with oltipraz and 1,2-dithiole-3-thione contained 0.29% final concentration DMSO. This concentration of DMSO had no effect on RT activity.

[6] = molecular target: T1, HIV-1 reverse transcriptase (RT); test: Time-dependent (irreversible) inhibition of HIV-1 reverse transcriptase after preincubation; format: biochemical; details: kinetic behaviour
Procedure: FIG. 6. […] RT was preincubated for the times indicated with oltipraz dissolved in DPBS containing 1 mg/ml bovine serum albumin, 0.13% DMSO, and either 4 μM TTP or 5 μg/ml poly(A):2.5 μg/ml oligo(dT). After incubation, 10 μl aliquots in triplicate were added to 25 μl of a reaction cocktail containing 4 μM TTP, 5 μg/ml poly(A), and 2.5 μg/ml oligo(dT) and assayed for TTP incorporation into DNA over 30 min. as described by Flexner, et al. (25). The insets are Kitz-Wilson transformations (41).
as §2, with “DMSO.” for “DMSO. This concentration of DMSO had no effect on RT activity.”

[7] = dose- and time-dependent, H9 cells
[8] = Exp 1, IFA, read-out: IC50 HIV-1 replication (Exp 1)
[9] = Exp 2, IFA, read-out: IC50 HIV-1 replication (Exp 2)

SMILES: S=c1ccss1 [1,2-dithiole-3-thione]
- inhibition of HIV-1 replication ([1]; up to 120 μM): inactive
- Quinone Reductase Specific Activity ([2]; 48 h, 30 μM): 232 ± 16 nmol/min/mg
- Quinone Reductase Specific Activity ([2]; 48 h, 60 μM): 244 ± 12.1 nmol/min/mg
- Quinone Reductase Specific Activity ([2]; 48 h, 120 μM): 299 ± 11 nmol/min/mg
- Quinone Reductase Specific Activity ([2]; 96 h, 30 μM): 59.4 ± 1.4 nmol/min/mg
- Quinone Reductase Specific Activity ([2]; 96 h, 60 μM): 65.0 ± 2.1 nmol/min/mg
- Quinone Reductase Specific Activity ([2]; 96 h, 120 μM): 109 ± 28 nmol/min/mg
- fold induction at 30 µM ([2]; H9, 48 h): 1.61
- fold induction at 60 µM ([2]; H9, 48 h): 1.67
- fold induction at 120 µM ([2]; H9, 48 h): 2.07
- fold induction at 30 µM ([2]; H9, 96 h): 1.17
- fold induction at 60 µM ([2]; H9, 96 h): 1.71
- fold induction at 120 µM ([2]; H9, 96 h): 2.15
- elevation of QR [2, 7]: able to elevate both GSH and QR levels
- cytotoxicity at optimal inductive doses [3]: non-cytotoxic
- Glutathione Levels ([4]; 48 h, 30 μM): 53.5 ± 7.1 nmol/mg
- Glutathione Levels ([4]; 48 h, 60 μM): 57.5 ± 1.3 nmol/mg
- Glutathione Levels ([4]; 48 h, 120 μM): 74.9 ± 3.6 nmol/mg
- Glutathione Levels ([4]; 96 h, 30 μM): 59.4 ± 1.4 nmol/mg
- Glutathione Levels ([4]; 96 h, 60 μM): 65.0 ± 2.1 nmol/mg
- Glutathione Levels ([4]; 96 h, 120 μM): 109 ± 28 nmol/mg
- fold induction at 30 µM ([4]; H9, 48 h): 1.17
- fold induction at 60 µM ([4]; H9, 48 h): 1.26
- fold induction at 120 µM ([4]; H9, 48 h): 1.63
- fold induction at 30 µM ([4]; H9, 96 h): 1.17
- fold induction at 60 µM ([4]; H9, 96 h): 1.71
- fold induction at 120 µM ([4]; H9, 96 h): 2.15
- elevation of GSH [4, 7]: able to elevate both GSH and QR levels
- inhibition of recombinant HIV-1 reverse transcriptase ([5]; poly(A):oligo(dT) and TTP as substrates): inactive

SMILES: Cc1cn([C@H]2C[C@H](N=[N+]=[N-])[C@@H](COP(=O)(O)OP(=O)(O)OP(=O)(O)O)O2)c(=O)[nH]c1=O [AZT triphosphate, 3'-azido-3'-deoxythymidine-5'-triphosphate]
- potency relative to oltipraz (reverse transcriptase) ([5]; identical assay conditions): approximately 1000 fold

- IC50 HIV-1 replication (Exp 1) ([1]; Exp 1, IFA): Inactive
- IC50 HIV-1 replication (Exp 2) ([1]; Exp 2, IFA): Inactive
SMILES: S=c1cc(-c2ccccc2)ss1 [compound 1]

- IC50 HIV-1 replication (Exp 1) ([1]; Exp 1, IFA): Inactive
- IC50 HIV-1 replication (Exp 2) ([1]; Exp 2, IFA): Inactive
SMILES: COc1ccc(-c2cc(=S)ss2)cc1 [compound 2]

- IC50 HIV-1 replication (Exp 2) ([1]; Exp 2, IFA): Inactive
- IC50 [1, 8]: 4 µM
SMILES: O=c1cc(-c2cnccn2)ss1 [compound 3]

- IC50 HIV-1 replication (Exp 1) ([1]; Exp 1, IFA): Inactive
- IC50 HIV-1 replication (Exp 2) ([1]; Exp 2, IFA): Inactive
SMILES: Cc1ncc(-c2cc(=S)ss2)nc1C [compound 4]

- IC50 [1, 8]: 3 µM
- IC50 [1, 9]: 10 µM
SMILES: Cc1c(-c2ccccn2)ssc1=S [compound 5]

- IC50 HIV-1 replication (Exp 2) ([1]; Exp 2, IFA): Inactive
- IC50 [1, 8]: 10 µM
SMILES: Cc1c(-c2cccnc2)ssc1=S [compound 6]

- IC50 [1, 8]: 60 µM
- IC50 [1, 9]: 60 µM
SMILES: Cc1c(-c2ccncc2)ssc1=S [compound 7]

- IC50 [1, 8]: 2 µM
- IC50 [1, 9]: 4 µM
SMILES: Cc1c(-c2cccnn2)ssc1=S [compound 8]

SMILES: Cc1c(-c2cccs2)ssc1=S [compound 9, 4-methyl-5-(2-thiofuranyl)-1,2-dithiole-3-thione]
- irreversible inhibition of reverse transcriptase [6]: behaves kinetically as an irreversible inhibitor of reverse transcriptase
- IC50 [1, 8]: 0.4 µM
- IC50 [1, 9]: 2 µM
- IC50 ([1]; N=5 independent experiments, IFA, read-out: IC50 HIV-1 replication): 1.8 ± 0.7 µM

- IC50 [1, 8]: > 60 µM
- IC50 [1, 9]: > 60 µM
SMILES: Cc1c(C=Cc2cnccn2)ssc1=S [compound 10]

- IC50 HIV-1 replication (Exp 2) ([1]; Exp 2, IFA): Inactive
- IC50 [1, 8]: 10 µM
SMILES: Cc1c(-c2cnccn2)ssc1=O [compound 12]

— US5691338A, “1,2-dithiole-3 thiones for the treatment of reverse transcriptase-dependent viral infections” (priority 1995, dated 1997)
